Results reported in the NIST ThermoML archive (doi:10.1021/je010272x).
Numbers after ± are expanded uncertainties.

Legend:
[1] = Liquid
[2] = Boiling temperature at pressure P; settings: Liquid, ebulliometry

Row | SMILES | vapor or sublimation pressure ([1]; 357.85 K) [kPa] | vapor or sublimation pressure ([1]; 364.85 K) [kPa] | vapor or sublimation pressure ([1]; 370.45 K) [kPa] | vapor or sublimation pressure ([1]; 372.95 K) [kPa] | vapor or sublimation pressure ([1]; 375.15 K) [kPa] | vapor or sublimation pressure ([1]; 379.05 K) [kPa] | vapor or sublimation pressure ([1]; 382.75 K) [kPa] | vapor or sublimation pressure ([1]; 385.65 K) [kPa] | vapor or sublimation pressure ([1]; 388.95 K) [kPa] | vapor or sublimation pressure ([1]; 390.35 K) [kPa] | vapor or sublimation pressure ([1]; 391.65 K) [kPa] | vapor or sublimation pressure ([1]; 394.15 K) [kPa] | vapor or sublimation pressure ([1]; 396.65 K) [kPa] | vapor or sublimation pressure ([1]; 398.85 K) [kPa] | vapor or sublimation pressure ([1]; 401.05 K) [kPa] | vapor or sublimation pressure ([1]; 402.45 K) [kPa] | Boiling temperature at pressure P ([2]; 33.3 kPa) [°C] | Boiling temperature at pressure P ([2]; 66.6 kPa) [°C] | Boiling temperature at pressure P ([2]; 101.3 kPa) [°C]
1 | CCC(C)CO (centres undefined) [2-methyl-1-butanol] | 16.7 ± 0.3 | 23.3 ± 0.3 | 30 ± 0.4 | 33.3 ± 0.4 | 36.7 ± 0.4 | 43.3 ± 0.4 | 50 ± 0.4 | 56.6 ± 0.5 | 63.3 ± 0.5 | 66.6 ± 0.5 | 70 ± 0.5 | 76.6 ± 0.5 | 83.3 ± 0.6 | 90 ± 0.6 | 96.6 ± 0.6 | 101.3 ± 0.6 |  |  | 
2 | CCO [ethanol] |  |  |  |  |  |  |  |  |  |  |  |  |  |  |  |  | 52.60 ± 0.2 | 68.00 ± 0.2 | 78.30 ± 0.2
